Experimental data: PubChem BioAssay AID1919002 (Molecular Pharmacology Branch, DTP, NCI, 2023)

Tested on: 743489-274-T-PDC complex spheroid growth
Test: Anticancer human tumor 743489-274-T-PDC patient-derived renal cell carcinoma cell line growth inhibition [AhR]
Settings: for IC50: curve of first compound; for viability, T/C: stronger effect = lower value
Text: Multicellular complex tumor spheroid response to aryl hydrocarbon receptor antagonists in combination with a variety of drugs and investigational agents in selected tumor cell lines
The current study was undertaken to assess response to aryl hydrocarbon receptor antagonists in combination with standard-of-care drugs and investigational agents in solid tumor complex spheroid models. Complex spheroids include a stromal component modeled by human endothelial cells (HUVEC) and fibroblasts modeled by human mesenchymal stem cells (MSCs). The concentration ranges selected for each drug and investigational agent were based upon clinically achievable concentrations if the clinical Cmax of the agent was known.
Compounds. The drugs and investigational agents: BAY 2416964 (NSC825713), GNF351 (NSC835774), CH-223191 (NSC835775), CPI-455 (NSC825282), aza-TdCyd (NSC777586), decitabine (NSC127716), belinostat (NSC758774), entinostat (NSC756642), pevonedistat (NSC761192), tazemetostat (NSC777109), talazoparib (NSC765396), olaparib (NSC753686), selinexor (NSC780203), nedisertib (M3814, NSC802822), bortezomib (NSC756655), venetoclax (NSC766270), doxorubicin (NSC123127), elimusertib (BAY189344, NSC800525), ceralasertib (AZD6738, NSC777638), TAK-243 (NSC785004), alisertib (NSC759677), etoposide (NSC141540), topotecan (NSC609699), eribulin (NSC707389), gemcitabine (NSC613327), carboplatin (NSC241240), cisplatin (NSC119875), and SN-38 (NSC673596) were obtained from the National Cancer Institute (NCI) Developmental Therapeutics Program Chemical Repository (32). The FDA-approved anticancer drug set is available from the Developmental Therapeutics Program at https://dtp.cancer.gov/organization/dscb/obtaining/available plates.htm. […] The stock solutions were prepared in dimethyl sulfoxide (DMSO, Sigma-Aldrich, St. Louis, MO, cat. D2650), except for the platinum compounds which were prepared in saline (Quality Biological, Gaithersburg, MD, cat. 114-055-101), at 800-fold the tested concentration and stored at -70 degrees C prior to their use. All drugs and investigational agents were tested over a range starting from a high concentration at or near the clinical Cmax and decreasing in half-log increments. If the clinical Cmax for an agent had not been determined, the highest concentration tested was 10 microM (Table 1).
Cell Culture. All cells were maintained in an incubator at 37 degrees C and 5% CO2 with 95% humidity. The PDC lines were cultured according to standard operating procedures established by the NCI PDMR (https://pdmr.cancer.gov). Briefly, all PDCs were thawed and cultured in Matrigel-coated flasks prepared with a working solution of 1X Ham's F-12 nutrient mix, without supplementation (Invitrogen, Waltham, MA, cat. 11765054), 100 U/mL penicillin-streptomycin (Invitrogen, cat. 15140122), and 2.5% Matrigel (Corning Inc., Corning, NY, cat. 354248) for the first three passages. All PDCs were cultured in complete DMEM/F-12 media containing advanced DMEM/F-12 (Invitrogen, cat. 12634028), 4.9% defined fetal bovine serum, heat inactivated (HyClone Laboratories Inc., Logan, UT, cat. SH30070.03HI), 389 ng/mL hydrocortisone (Sigma-Aldrich, cat. H4001), 9.7 ng/mL human EGF recombinant protein (Invitrogen, cat. PHG0313), 23.4 microg/mL adenine (Sigma-Aldrich, cat. A2786), 97.3 U/mL penicillin-streptomycin (Invitrogen, cat. 15140122), 1.9 mM L-glutamine (Invitrogen, cat. 25030081), and 9.7 microM Y-27632 dihydrochloride (Tocris Bioscience, Bristol, United Kingdom, cat. 1254). The PDCs were cultured in complete DMEM/F12 media without 10 microM Y-27632 dihydrochloride for at least two passages prior to the screen. The established cell lines NCI-H1341 and […] were cultured in DMEM/F-12, HEPES (Invitrogen, cat. 11330032), 5% defined fetal bovine serum (HyClone Laboratories Inc., cat. SH30070.03), ITS premix universal culture supplement [insulin (5 microg/mL), transferrin (5 microg/mL), and selenious acid (5 ng/mL)] […]

[1] = second compound 0.1 µM, first compound 0.0316 µM
[2] = second compound 0.1 µM, first compound 0.1 µM
[3] = second compound 0.1 µM, first compound 0.316 µM
[4] = second compound 0.1 µM, first compound 1 µM
[5] = second compound 0.316 µM, first compound 0.0316 µM
[6] = second compound 0.316 µM, first compound 0.1 µM
[7] = second compound 0.316 µM, first compound 0.316 µM
[8] = second compound 0.316 µM, first compound 1 µM
[9] = second compound 1 µM, first compound 0.0316 µM
[10] = second compound 1 µM, first compound 0.1 µM
[11] = second compound 1 µM, first compound 0.316 µM
[12] = second compound 1 µM, first compound 1 µM
[13] = second compound 3.16 µM, first compound 0.0316 µM
[14] = second compound 3.16 µM, first compound 0.1 µM
[15] = second compound 3.16 µM, first compound 0.316 µM
[16] = second compound 3.16 µM, first compound 1 µM
[17] = second compound 10 µM, first compound 0.0316 µM
[18] = second compound 10 µM, first compound 0.1 µM
[19] = second compound 10 µM, first compound 0.316 µM
[20] = second compound 10 µM, first compound 1 µM
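Note: spheroids exposed to agents for 7 days before readout.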
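Throughout, for viability, T/C: 100% = DMSO vehicle control wells.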

Structure (SMILES)	IC50 (second compound 0.1 µM)	IC50 (second compound 0.316 µM)	IC50 (second compound 1 µM)	IC50 (second compound 3.16 µM)	IC50 (second compound 10 µM)	viability, T/C [1]	viability, T/C [2]	viability, T/C [3]	viability, T/C [4]	viability, T/C [5]	viability, T/C [6]	viability, T/C [7]	viability, T/C [8]	viability, T/C [9]	viability, T/C [10]	viability, T/C [11]	viability, T/C [12]	viability, T/C [13]	viability, T/C [14]	viability, T/C [15]	further results
COc1cccc2c1C(=O)c1c(O)c3c(c(O)c1C2=O)CC(O)(C(=O)CO)CC3OC1CC(N)C(O)C(C)O1 (stereo not given) + CC(CO)NC(=O)c1cc(-c2ccc(Cl)cc2)nn(-c2cnn(C)c2)c1=O	8.45 µM	9.32 µM	8.98 µM	6.53 µM	3.24 µM	101%	106%	107%	96.3%	93.7%	106%	108%	93.5%	110%	95%	107%	97%	88%	91.6%	108%	viability, T/C (second compound 0.1 µM, first compound 3.16 µM): 108%; viability, T/C (second compound 0.1 µM, first compound 10 µM): 40.6%; viability, T/C (second compound 0.316 µM, first compound 3.16 µM): 102%; viability, T/C (second compound 0.316 µM, first compound 10 µM): 46.7%; viability, T/C (second compound 1 µM, first compound 3.16 µM): 93.2%; viability, T/C (second compound 1 µM, first compound 10 µM): 45.5%; viability, T/C [16]: 96.7%; viability, T/C (second compound 3.16 µM, first compound 3.16 µM): 88.2%; viability, T/C (second compound 3.16 µM, first compound 10 µM): 27.4%; viability, T/C [17]: 92%; viability, T/C [18]: 103%; viability, T/C [19]: 101%; viability, T/C [20]: 89.7%; viability, T/C (second compound 10 µM, first compound 3.16 µM): 51.2%; viability, T/C (second compound 10 µM, first compound 10 µM): 0.36%
Nc1ncn(C2CC(O)C(CO)O2)c(=O)n1 (stereo not given) + CC(CO)NC(=O)c1cc(-c2ccc(Cl)cc2)nn(-c2cnn(C)c2)c1=O	> 1 µM	> 1 µM	> 1 µM	> 1 µM	> 1 µM	98.4%	87.5%	99.4%	91.4%	91%	98%	84.5%	85.3%	89.9%	94.7%	101%	88.6%	96%	92.3%	85%	viability, T/C (second compound 0.1 µM, first compound 0.00316 µM): 88.6%; viability, T/C (second compound 0.1 µM, first compound 0.01 µM): 93.4%; viability, T/C (second compound 0.316 µM, first compound 0.00316 µM): 80.4%; viability, T/C (second compound 0.316 µM, first compound 0.01 µM): 89.9%; viability, T/C (second compound 1 µM, first compound 0.00316 µM): 94.8%; viability, T/C (second compound 1 µM, first compound 0.01 µM): 93.2%; viability, T/C (second compound 3.16 µM, first compound 0.00316 µM): 95.2%; viability, T/C (second compound 3.16 µM, first compound 0.01 µM): 85.2%; viability, T/C [16]: 84.3%; viability, T/C (second compound 10 µM, first compound 0.00316 µM): 88.2%; viability, T/C (second compound 10 µM, first compound 0.01 µM): 96%; viability, T/C [17]: 88.7%; viability, T/C [18]: 93.9%; viability, T/C [19]: 82.9%; viability, T/C [20]: 107%
